“Also recorded” adds a separate entry of the source. Marks after values point to notes of the source that are not given here.
How the values were obtained:
MRSA strain USA 300 = experiment: Broth microdilution MIC; format: cell-based, Staphylococcus aureus; conditions: for anti-S. aureus (bacteriostatic) activity: at concentrations that inhibit SrtA activity
Description: (§1) The broth microdilution method was used to determine the minimum inhibitory concentration (MIC) of the oligopeptide against the MRSA strain USA 300 according to the NCCLS guideline M31-A2. For the growth curve experiment, an overnight bacterial culture was inoculated in fresh TSB (1:100) with the indicated concentrations of the oligopeptide, and the optical density (OD) at 600 nm was measured for each sample at 1-h intervals.

SrtAC184A [1] = biological target: T1, SrtAC184A (Staphylococcus aureus, UniProt Q2FV99, C184A); experiment: Fluorescence spectroscopy quenching binding constant, SrtAC184A
T1 construct: GST (cleaved yes); made in house; host or cells: Escherichia coli BL21 (DE3)
From the text: (§2) In this study, the fluorescence quenching method was used to measure the binding constants (KA) of ligands to proteins. A 280-nm excitation wavelength with 5-nm band pass and a 345-nm emission wavelength with 10-nm band pass were used for the measurements. Details of the measurement procedures have been described previously ([Bandyopadhyay et al., 2002]; [Jurasekova et al., 2009]).

SrtAN114A [2] = biological target: T2, SrtAN114A (Staphylococcus aureus, UniProt Q2FV99, N114A); experiment: SrtA activity inhibition assay, mutant SrtAN114A; format: biochemical; conditions: Figure 5C
T2 construct: GST (cleaved yes); made in house; host or cells: Escherichia coli BL21 (DE3)
Description: (§3) The procedures followed for expression and purification of the mutant proteins (SrtAN114A, SrtAC184A, and SrtAR197A) were identical to those followed for the wild-type protein (SrtAΔN59).
(§4) Site-directed mutagenesis for SrtAN114A, SrtAC184A, and SrtAR197A was conducted using a recombinant vector encoding SrtAΔN59 with a QuickChange Site-Directed Mutagenesis Kit (Stratagene, La Jolla, CA, United States). The primer pairs for these three mutations were as follows: N114A forward, 5′-[…]-3′; N114A reverse, 5′-[…]-3′; C184A forward, 5′-[…]-3′; C184A reverse, 5′-[…]-3′; R197A forward, 5′-[…]-3′; and R197A reverse, 5′-[…]-3′.
(§5) The inhibitory effect of the oligopeptide against SrtA and its mutants activity was determined as previously described in 96-well black plates (PerkinElmer, Boston, MA, United States) ([Wang et al., 2015c]). Briefly, 100 μL of purified SrtA ([…]) was preincubated with 100 μL of increasing concentrations of the oligopeptide (3.125–25 μM) in reaction buffer at 37°C for 20 min. The model fluorescent peptide substrate Dabcyl-[…]-Edans (GL Biochem, Shanghai, China) (final concentration of 10 μM) was added to the reaction system, followed by incubation at 37°C for 1 h. Fluorescence intensity was measured at […] wavelengths of 350 and 520 nm, respectively. The experiments were repeated three times independently for each sample.

[3] = test system: S. aureus USA 300 adherence to bovine fibronectin; experiment: Fibronectin-binding assay; format: cell-based, Staphylococcus aureus; conditions: USA 300 treated with oligopeptide, crystal violet OD570 nm
Description: Ninety-six-well flat-bottom polystyrene plates were coated with 100 μL of 2 μg/mL fibronectin in PBS (fibronectin from bovine plasma; Sigma–Aldrich, St. Louis, MO, United States) per well and incubated at 4°C overnight. Each well was washed three times with PBS and blocked with 5% BSA in PBS at 37°C for 2 h. An overnight bacterial culture was inoculated in fresh TSB (1:100, OD600 nm ≈ 0.2) with the indicated concentrations of the oligopeptide and incubated until the OD600 nm reached 0.5. Then, the cells were centrifuged at 5000 × g for 10 min and resuspended in PBS to an OD600 nm of 1.0. One hundred microliters of bacterial suspension were added to each fibronectin-coated plate well as described above, and the plates were incubated at 37°C for 2 h. After removal of the cell suspension, 25% (v/v) formaldehyde was added to fix S. aureus. Then, the bacteria attached to fibronectin were stained with 100 μL of 0.4% crystal violet dye for 20 min at 37°C after being washed once with PBS. Following removal of the supernatant, adherence was quantified by measuring the OD570 nm for each well. USA 300 without the oligopeptide was used as a positive control, and PBS was used as a negative control.

SrtAR197A [4] = biological target: T3, SrtAR197A (Staphylococcus aureus, UniProt Q2FV99, R197A); experiment: SrtA activity inhibition assay, mutant SrtAR197A; format: biochemical; conditions: Figure 5C
T3 construct: GST (cleaved yes); made in house; host or cells: Escherichia coli BL21 (DE3)
Description: as §3, §4, §5

SrtAC184A [5] = biological target: T1, SrtAC184A; experiment: SrtA activity inhibition assay, mutant SrtAC184A; format: biochemical; conditions: Figure 5C
Description: as §3, §4, §5

SrtAR197A [6] = biological target: T3, SrtAR197A; experiment: Fluorescence spectroscopy quenching binding constant, SrtAR197A
From the text: as §2

SrtAN114A [7] = biological target: T2, SrtAN114A; experiment: Fluorescence spectroscopy quenching binding constant, SrtAN114A
From the text: as §2

[8] = test system: S. aureus-induced mastitis; experiment: Mouse mastitis model of S. aureus infection; format: in vivo, BALB/c mice; conditions: for protection against S. aureus-induced mastitis: mouse model
Description: BALB/c mice (from the Experimental Animal Center of Jilin University) were obtained and housed under specific pathogen-free conditions. All animal studies were approved by and conducted in accordance with the guidelines of the Animal Welfare and Research Ethics Committee of Jilin University. An overnight bacterial culture was inoculated in fresh TSB broth (1:100, OD600 nm ≈ 0.2) and incubated until the OD600 nm reached 0.8. Cells were harvested by centrifugation at 3,000 × g for 10 min, washed three times with PBS, and resuspended in PBS to a concentration of 1 × 10^9 CFU/mL for the mastitis infection experiment.
For establishment of a mastitis model of infection, lactating BALB/c mice, 10–12 weeks of age and weighing 30–32 g, were anesthetized using sodium pentobarbital and infected by injecting the canal glands with 50 μL of staphylococcal suspension per breast. The infected mice were administered 50 mg/kg of the oligopeptide subcutaneously at the time of infection and then at 12-h intervals. The control mice received an equal volume of PBS at the same time points. To evaluate the pathological correlates of mastitis, mammary gland tissues isolated from sacrificed mice at 48 h post-infection were fixed in 4% paraformaldehyde, stained with hematoxylin and eosin, and visualized by light microscopy. Furthermore, additional mammary gland tissues from the mice sacrificed at 48 h post-infection were homogenized in PBS containing 2% Triton X-100, after which they were appropriately diluted and inoculated onto TSB agar plates for assessment of the bacterial burden. The levels of the inflammatory cytokines IL-1β, IL-6, and TNF-α in the supernatants were measured using ELISA kits.

[9] = test system: S. aureus invasion into J774 cells; experiment: Invasion assay in J774 cells; format: cell-based, Staphylococcus aureus; conditions: 25 μM oligopeptide, infection 1 h, CFU of lysed cells
Description: J774 cells were adjusted to 4 × 10^5 per glass slide in 24-well plates in Dulbecco’s […] essential medium (DMEM) supplemented with 10% fetal bovine serum (FBS) and cultured in an incubator at 5% CO2 and 37°C overnight. An overnight bacterial culture was inoculated in fresh TSB (1:100, OD600 nm ≈ 0.2) with the indicated concentrations of the oligopeptide and incubated until the OD600 nm reached 1.0. Then, the bacteria were resuspended in DMEM containing 10% FBS at a concentration of 1 × 10^8 CFU/mL, and 1 mL of the resuspension was added to each well for infection at 37°C for 1 h. Invasion was terminated by incubation with 300 μg/mL gentamicin for 30 min. After three washes with PBS, coverslips were placed in 0.2% Triton X-100 with vigorous vortexing, and the diluted lysates were plated onto TSB agar plates to enumerate the number of bacteria associated with each sample.

[10] = test system: surface protein A display on S. aureus; experiment: Immunofluorescence assay of surface protein A; format: cell-based, Staphylococcus aureus; conditions: S. aureus cultured with oligopeptide 37°C 2.5 h, confocal microscopy
Description: Detection of surface protein A by immunofluorescence analysis was performed as described previously ([Chen et al., 2014]). Briefly, S. aureus were cultured in TSB with or without the oligopeptide at 37°C for 2.5 h, pelleted by centrifugation (3,000 × g, 10 min), washed three times with PBS, blocked with 2% BSA for 1 h at 37°C, stained with fluorescein isothiocyanate (FITC)-labeled goat anti-rabbit IgG for 2 h at 37°C, and observed under a laser scanning confocal microscope (Olympus, Tokyo, Japan).

S. aureus USA 300 = experiment: Growth curve experiment (OD 600 nm); format: cell-based, Staphylococcus aureus; conditions: USA 300 in TSB, oligopeptide 3.125–25 μM
Description: as §1

SrtAWT = biological target: T4, SrtAWT (Staphylococcus aureus, UniProt Q2FV99); experiment: Fluorescence spectroscopy quenching binding constant, SrtAWT
T4 construct: GST (cleaved yes); made in house; host or cells: Escherichia coli BL21 (DE3)
From the text: as §2

SrtA (SrtAΔN59) = biological target: T5, SrtA (SrtAΔN59) (Staphylococcus aureus, UniProt Q2FV99); experiment: SrtA activity inhibition assay (fluorescent substrate Dabcyl-[…]-Edans); format: biochemical; conditions: purified SrtA preincubated with oligopeptide 3.125–25 μM, 37°C 20 min; substrate 10 μM, 1 h
T5 construct: GST (cleaved yes); made in house; host or cells: Escherichia coli BL21 (DE3)
Description: An Escherichia coli BL21 (DE3) strain harboring a recombinant vector encoding SrtA∆N59 was used, as described previously ([Wang et al., 2015c]). Cells were cultured overnight at 16°C with 1 mM isopropyl-β-D-thiogalactopyranoside (IPTG, Invitrogen, Carlsbad, CA, United States) in TSB containing ampicillin to induce SrtA expression until the OD600 reached 0.6 ∼ 0.8. Then, the cells were harvested by centrifugation at 5,500 × g for 10 min, resuspended in reaction buffer (50 mM Tris-HCl, 5 mM CaCl2, and 150 mM NaCl, pH 7.5) and lysed by sonication. […] The bound GST-tagged proteins were incubated with Precision Protease at 4°C overnight prior to elution with reaction buffer. Purified SrtA proteins were concentrated to […] via centrifugal filtration (Millipore, Bedford, MA, United States) and subsequently analyzed by SDS-PAGE.
The inhibitory effect of the oligopeptide against SrtA and its mutants activity was determined as previously described in 96-well black plates (PerkinElmer, Boston, MA, United States) ([Wang et al., 2015c]). Briefly, 100 μL of purified SrtA ([…]) was preincubated with 100 μL of increasing concentrations of the oligopeptide (3.125–25 μM) in reaction buffer at 37°C for 20 min. […] Fluorescence intensity was measured at […] wavelengths of 350 and 520 nm, respectively. […]

## LPRDA
MRSA strain USA 300; MRSA USA 300, broth microdilution
  MIC: greater than 200 μM
MRSA strain USA 300
  anti-S. aureus (bacteriostatic) activity: without anti-S. aureus activity
MRSA strain USA 300; listed as oligopeptide
  anti-S. aureus (bacteriostatic) activity: no anti-Staphylococcus aureus activity; also recorded: no bacteriostatic activity
SrtAC184A [1]
  binding constant KA: 5.1 ± 1.2 (1 × 10^4) L⋅mol^-1
SrtAN114A [2]
  sensitivity of SrtAN114A to oligopeptide-induced inhibition compared to wild-type SrtA: significantly decreased
[3]
  adherence to fibronectin: decreased adherence
SrtAR197A [4]
  sensitivity of SrtAR197A to oligopeptide-induced inhibition compared to wild-type SrtA: significantly decreased
SrtAC184A [5]
  sensitivity of SrtAC184A to oligopeptide-induced inhibition compared to wild-type SrtA: significantly decreased
SrtAR197A [6]
  binding constant KA: 5.0 ± 1.4 (1 × 10^4) L⋅mol^-1
SrtAN114A [7]
  binding constant KA: 4.2 ± 1.1 (1 × 10^4) L⋅mol^-1
[8]; lactating BALB/c mice, 50 mg/kg at infection then 12-h intervals, 48 h post-infection, vs PBS, listed as oligopeptide, 50 mg/kg
  inflammatory responses and pathological changes of mammary gland tissues: effectively alleviated; also recorded: Significant alleviation; also recorded: remarkably alleviated
[8]; lactating BALB/c mice, 50 mg/kg, 48 h post-infection, ELISA
  levels of cytokines IL-1β, IL-6 and TNF-α in mammary gland tissues: significantly reduced
[8]; lactating BALB/c mice, 50 mg/kg, 48 h post-infection, vs PBS-treated control
  bacterial burden in mammary gland tissues: significant decrease
[8]
  protection against S. aureus-induced mastitis: conferred effective protection
[8]; listed as oligopeptide
  protection against S. aureus-induced mastitis: provided protection
[9]
  invasion of S. aureus into J774 cells: significant anti-invasive activity
[10]
  display (anchoring) of surface protein A, binding of FITC-conjugated IgG: significantly hindered the binding of FITC-conjugated IgG; also recorded: decreased
S. aureus USA 300
  growth of S. aureus: not visibly affected
SrtAWT
  binding constant KA: 6.6 ± 1.3 (1 × 10^4) L⋅mol^-1

## LPRDA (PEG2000-LPRDA-NH2)
SrtA (SrtAΔN59)
  IC50: 10.6 µM

From PMC5817083, “Oligopeptide Targeting Sortase A as Potential Anti-infective Therapy for Staphylococcus aureus” (Frontiers in Microbiology, 2018)
